Experiments:
5-HT2CR = molecular target: T1, 5-HT2CR (Rattus norvegicus, UniProt P08909); assay: Radioligand binding at 5-HT2C on rat frontal cortex membranes; conditions: rat frontal cortex membranes; [3H]mesulergine
T1 construct: from tissue; host or cells: frontal cortex of male Sprague-Dawley rats
T1 sequence (P08909 33-460): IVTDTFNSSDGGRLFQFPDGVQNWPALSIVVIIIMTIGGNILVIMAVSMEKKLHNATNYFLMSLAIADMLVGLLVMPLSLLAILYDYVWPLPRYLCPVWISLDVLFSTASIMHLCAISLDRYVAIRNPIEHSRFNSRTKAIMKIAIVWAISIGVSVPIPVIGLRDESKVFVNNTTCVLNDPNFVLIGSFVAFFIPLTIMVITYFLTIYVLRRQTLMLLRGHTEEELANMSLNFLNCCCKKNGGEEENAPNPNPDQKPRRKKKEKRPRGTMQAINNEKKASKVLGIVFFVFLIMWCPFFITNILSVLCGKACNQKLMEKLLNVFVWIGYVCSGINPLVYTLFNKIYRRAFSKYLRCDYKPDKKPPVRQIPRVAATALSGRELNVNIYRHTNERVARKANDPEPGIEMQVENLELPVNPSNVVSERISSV
Description: (§1) Male Sprague–Dawley rats were decapitated and their brains removed and placed on ice. The hippocampi (for the functional 5-HT1A receptor assay) or frontal cortexes (for the competitive 5-HT2A and 5-HT2C receptor assays) were dissected and homogenized with a glass homogenizer in 30 vol. ice-cold TED buffer (50 mMTris-HCl, 1 mM EDTA, 1 mM dithiotheritol, pH 7.4). Next, the homogenate was centrifuged at 21 000g for 30 min at 4 °C. The pellet was suspended in 30 vol TED buffer (pH 7.4) and incubated in a water bath for 10 min at 37 °C to remove endogenous ligands. The suspension was centrifuged again at 21 000g for 30 min at 4 °C. The pellet was resuspended in 30 vol TED buffer (pH 7.4) and the centrifugation step was repeated. The final pellet was suspended in 10 vol 50 mM Tris-HCl (pH 7.4) and stored at −80 °C until use.[47]
The 5-HT2A assay was performed according to a previously described protocol with some modifications.[48] […] Nonspecific binding was determined in the presence of 10 μM mianserin. For the 5-HT2C assay, the frontal cortex homogenates (250 μg protein/mL) were incubated in triplicate with 1 nM [^3H]mesulergine for 60 min at 36 °C in a 50 mM Tris-HCl (pH 7.4) buffer containing 0.1% ascorbate, 10 mM MgCl2, 10 μM pargyline, 100 nM spiperone, and increasing concentrations (10^–10–10^–5 M) of the compound tested. After incubation, the reaction mixture was deposited onto UniFilter-96 GF/B plates, with the aid of a FilterMate-96 Harvester. The filter plates were presoaked with 0.4% PEI for 1 h. Next, each filter well was washed with 1.75 mL of 50 mM Tris-HCl (pH 7.4) and left to dry on a heating block set to 50 °C for 2 h. Then, 45 μL of Microscint-20 scintillation fluid was added to each filter well and left to equilibrate overnight. The filter-bound radioactivity was counted in a MicroBeta^2 Microplate Counter. Curves were fitted with a one-site sigmoidal dose–response equation and pKi for each compound was calculated with the Cheng-Pursoff equation. Results were analyzed with one-way ANOVA followed by the Bonferroni’s posthoc test. The results are expressed as means ± SEM of three independent experiments.

[1] = system: superficial dorsal horn neurons (lamina I–II); assay: Patch-clamp recording from spinal cord slices; assay type: cell-based, mouse
Description: The Italian Ministry of Health approved all the experiments that were conducted on postnatal CD1 mice (P18–P25) in accordance with the Guide for the Care and Use of Laboratory Animals and the EU and Italian regulations on animal welfare. The spinal cord slices were obtained following the procedure described previously.[69],[70] Briefly, the animals were anesthetized with isoflurane and decapitated, the spinal cord and vertebrae were rapidly removed and placed in ice-cold dissecting Krebs’ solution (composition in mM:125 NaCl, 2.5 KCl, 1.25 NaH2PO4, 26 NaHCO3, 25 glucose, 6 MgCl2, 1.5 CaCl2, and 1 kynurenic acid, pH 7.4, 320 mOsm), bubbled with 95% O2, 5% CO2. The lumbar spinal cord was isolated, embedded in an agarose block (low melting point agarose 3%, Thermo Fisher Scientific, Waltham, USA), and transverse slices (500 μm thick) were obtained using a vibrating microtome (WPI, Sarasota, USA). The slices were incubated in oxygenated incubation Krebs’ solution (the same as dissecting but without kynurenic acid) at 35 °C for 30 min and used for recording. The Patch-clamp recording in whole-cell configuration was performed on lamina I–II neurons at room temperature. The slices were perfused at 2 mL/min with recording Krebs’solution (in mM: 125 NaCl, 2.5 KCl, 1.25 NaH2PO4, 26 NaHCO3, 25 glucose, 1 MgCl2, and 2 CaCl2, pH 7.4, 320 mOsm). Recordings of post-synaptic currents (EPSCs) were performed in voltage clamp, by using an intracellular solution with the following composition (in mM): 120 potassium methanesulfonate, 10 NaCl, 10 EGTA, 1 CaCl2, 10 HEPES, 5 ATP-Mg, pH adjusted to 7.2 with KOH, osmolarity 300 mOsm. 8-OH-DPAT was obtained from Sigma-Aldrich (Saint Louis, USA). The data were recorded and acquired using a Multiclamp 700A amplifier and the pClamp 10 software (Molecular Devices, Sunnyvale, USA). The sampling rate was 10 kHz, and the data were filtered at 2 kHz. The data were analyzed off-line using pClamp10 software and Minianalysis (Synaptosoft, USA). The data are expressed as the mean ± SEM and differences were considered significant for p < 0.05. The statistical significance for the effect on EPSC frequency was determined using the Kolmogorov–Smirnov test on individual neurons.

5-HT1AR [2] = molecular target: T2, 5-HT1AR (Rattus norvegicus, UniProt P19327); assay: [35S]GTPγS functional 5-HT1A assay in rat hippocampal membranes; assay type: biochemical; conditions: read-out: 5-HT1A Emax (%) ± SEM
T2 construct: from tissue; hippocampus per the main-text methods
T2 sequence (P19327 1-422): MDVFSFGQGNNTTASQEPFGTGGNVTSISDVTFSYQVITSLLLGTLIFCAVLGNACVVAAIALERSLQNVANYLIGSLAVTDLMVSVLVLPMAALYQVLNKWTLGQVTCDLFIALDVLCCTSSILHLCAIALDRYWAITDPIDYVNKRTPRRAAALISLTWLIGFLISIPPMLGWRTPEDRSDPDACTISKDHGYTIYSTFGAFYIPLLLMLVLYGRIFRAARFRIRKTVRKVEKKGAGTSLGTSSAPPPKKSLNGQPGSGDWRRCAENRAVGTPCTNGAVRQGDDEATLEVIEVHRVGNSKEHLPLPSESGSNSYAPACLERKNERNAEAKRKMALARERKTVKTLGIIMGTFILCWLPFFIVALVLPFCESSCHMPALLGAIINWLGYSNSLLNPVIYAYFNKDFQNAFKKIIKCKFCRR
Description: as §1
(§2) The [^35S]GTPγS assay was performed according to the method described previously.[49] […] Nonspecific binding was determined with 100 μM of unlabeled GTPγS. The reaction mixture was incubated for 90 min at 36 °C in a volume of 250 μL. […] Next, 96-well Unifilter Plates (PerkinElmer, USA) were presoaked for 1 h with 50 mM Tris-HCl (pH = 7.4) before harvesting. The reaction was terminated by vacuum filtration onto filter plates with the Filter Mate Harvester (PerkinElmer, USA). The samples were then rapidly washed with 2 mL of 50 mM Tris-HCl (pH = 7.4) buffer. The filter plates were dried for 2 h at 50 °C. After drying, 45 μL of EcoScint-20 scintillant (PerkinElmer, USA) was added to every well. The radioactivity was counted in a Trilux MicroBeta^2 counter (PerkinElmer, USA). The data were analyzed with GraphPad Prism 5.0 software (GraphPad Software, San Diego California USA, www.graphpad.com). To determine whether compound-stimulated [^35S]GTPγS binding involved 5-HT1A receptors, two protocols were used.
The curves were fitted with a one-site nonlinear regression model. Efficacy (Emax) and potency (pEC50) were calculated from […] from three separate experiments and expressed as the means ± SEM. […] The differences in compound potency and efficacy were evaluated with one-way ANOVA followed by the Bonferroni’s post-hoc test. The baseline G-protein stimulation was set at 100%. One, two, or three symbols represent statistical significance of 0.05, 0.01, and 0.001, respectively.

5-HT1AR [3] = molecular target: T2, 5-HT1AR; assay: Effect of WAY100635 on compound-stimulated [35S]GTPγS binding (Tables SI-1, SI-2); assay type: biochemical
Description: as §2, with “used. […]” for “used.”
WAY).) Results were expressed as means ± SEM. Curves were fitted with a one-site sigmoidal dose-response equation […]
calculated as the ratio of pEC50 in the presence of WAY100635 divided by the pEC50 of agonist alone. Basal 5-HT1AR activation was set to 100%. Results were analyzed with one-way ANOVA followed by the Bonferroni’s post-hoc test. […]
WAY100635 (10^-10 M - 10^-5 M, WAY). Results were expressed as means ± SEM. Curves were fitted with a one-site sigmoidal dose-response equation and Emax (%) of the EC80 agonist concentration alone and in the presence of WAY100635 were determined from 2 independent experiments. Basal (no ligand added) [35S]GTPγS binding was set to 100%. Results were analyzed with one-way ANOVA followed by the Bonferroni’s post-hoc test.

Male Swiss CB1 mice = assay: Formalin test; assay type: in vivo, mouse
Description: Male Swiss CB1 mice (Envigo, S. Pietro al Natisone (UD)) weighing 25–30 g were used. The animals were kept at a constant room temperature (25 ± 1 °C) under a 12:12 h light and dark cycle, with free access to food and water. Each mouse was used for only one experiment. […] All the tests were performed blind to treatment.
The formalin (5%, 10 μL; Sigma-Aldrich) was injected subcutaneously into the plantar side of the right hind paw.[68] After injection, the mice were immediately placed in a plexiglas box: the total time (in seconds) spent on licking or biting the injected hind paw was recorded every 5 min at selected intervals, 0–10 (phase I) and 10–60 (phase II) min, in the different experimental groups, as an indicator of nociceptive behavior. […] A mean response was then calculated for each phase. […] A vehicle solution containing 10% DMSO was given as a control. Morphine was used as positive control. The test compound and vehicle were […] (i.p.) administered (5 mL/kg) 15 min before the formalin. […] The data are expressed as mean values (SEM). Analyses of variance (two-way repeated measures ANOVA followed by post hoc Bonferroni test) were performed to assess significance using the Instat 3.0 software (GraphPad Software, San Diego, CA). p < 0.05 was considered significant.

COc1cc(OC)c(C(=O)CCCCN2CCC3(CC2)NC(=O)NC3=O)cc1NS(=O)(=O)c1ccc(C(F)(F)F)cc1 [RS-102221, reference compound]
5-HT2C pKi ± SEM (5-HT2CR): 8.34 ± 0.12

CCCN(CCC)C1CCc2cccc(O)c2C1 (stereo not drawn) [8-OH-DPAT, reference compound]
neurons showing sEPSC frequency decrease ([1]; 10 μM): 4 out of 11
neurons showing slow outward current ([1]; bath application 10 μM, voltage clamp −60 mV): 6 out of the 11
Emax (5-HT1AR [2]): 152 ± 2.4%
Emax (5-HT1AR [3]; read-out: Emax (%) ± SEM of EC80 agonist concentration alone): 142 ± 19.4%
Emax (5-HT1AR [3]; read-out: Emax (%) ± SEM, compound alone): 152 ± 2.4%

COc1ccccc1N1CCN(CCN(C(=O)C2CCCCC2)c2ccccn2)CC1 [WAY-100635, reference compound]
licking response after formalin, per se (Male Swiss CB1 mice; 3 mg/kg i.p.): did not alter the licking response

CN1CC[C@]23c4c5ccc(O)c4O[C@H]2[C@@H](O)C=C[C@H]3[C@H]1C5 [Morphine, reference compound]
analgesic effect in first and second phases of the formalin test (Male Swiss CB1 mice; 10 mg/kg i.p., formalin 5% 10 μL intraplantar): essentially eliminated the response to formalin

NCCc1c[nH]c2ccc(O)cc12 [serotonin, reference compound]
Emax (5-HT1AR [2]; rat hippocampal membranes, basal 5-HT1AR activation set to 100%): 192 ± 4.9%

From article PMC8016166, “Identification of a Potent and Selective 5-HT1A Receptor Agonist with In Vitro and In Vivo Antinociceptive Activity” (ACS Chemical Neuroscience, 2020)
